Assay results taken from patent publication US20240254109A1, “SALT CONTAINING PIPERAZINE POLYCYCLIC DERIVATIVE, CRYSTAL FORM THEREOF, PREPARATION METHOD THEREFOR, AND USE THEREOF” (Shanghai Hansoh Biomedical Co., Ltd., priority 2021, published 2024).
Structures can show the parent of a compound that is named as a salt.

Experiments:
[1] = Solid stability experiment of crystal form of salt; assay type: physicochemical
Protocol: 4. Solid Stability Experiment
The physicochemical stability of crystal form of salt of compound N-(trans-3-(2-(4-(2,3-dichlorophenyl)piperazin-1-yl)ethyl)cyclobutyl)oxazole-2-carboxamide under the conditions of light 50001×, high temperature 60° C., high humidity 92.5% RH and high temperature and high humidity 50° C. 75% RH was investigated, which provided a basis for crystal form screening and compound crystal form storage.
About 1 mg of different crystal forms of salt were taken and placed under the conditions of light 50001×, high temperature 60° C., high humidity 92.5% RH, high temperature and high humidity 50° C. 75% RH for 5 days and 10 days. The salt content was determined by HPLC and external standard method, and the change of relevant substances was calculated by chromatographic peak area normalization method.

[2] = Pressure crystal transformation test; assay type: physicochemical; details: before and after pressure, tablet press at maximum pressure
Source text: 4.5 Pressure Crystal Transformation Test
The tablet press was adjusted to the maximum pressure. It was pressed into a tablet and then was subjected to PXRD characterization.

[3] = Pharmacokinetics study in rats; assay type: in vivo
Source text: 8. Pharmacokinetics Study in Rats

[4] = Crystal form stability study of hydrochloride for 30 days; assay type: physicochemical; details: 30 days
Protocol: 9. Crystal Form Stability Study of Hydrochloride for 30 Days
The 30 days stability of hydrochloride of N-(trans-3-(2-(4-(2,3-dichlorophenyl)piperazin-1-yl)ethyl)cyclobutyl)oxazole-2-carboxamide under four conditions of 60° C. (closed), 40° C. & RH 75% (open), 25° C./RH 92.5% (open) and light (5000±500 Lux) was detected, which provided scientific basis for the production, packaging, storage and transportation conditions of drugs.
The diluent 80% methanol solution was added to prepare a solution containing about 0.5 mg/mL hydrochloride. The mixture was sonicated for 30 min to produce a clear solution. 1 mL of the solution was filtered and measured by HPLC. See “2.3.4” for the HPLC analysis method. The content of related substances was calculated according to the peak area normalization method, and the results are shown in Table 32 below.

[5] = Grinding crystal transformation test; assay type: physicochemical; details: before and after grinding in a mortar for 5 min
Source text: 4.6 Grinding Crystal Transformation Test

[6] = Salt form quantification by HPLC-ELSD; assay type: physicochemical
Protocol: 7. Salt Form Quantification
The number of acids binding in the salt form was quantified by HPLC-ELSD test.
An appropriate amount of NaCl was weighed, and a series of linear solutions of different concentrations with the diluent acetonitrile-water (50:50) was prepared.
The above linear solution and hydrochloride samples solution was taken to filter.
7.3 Experimental results: The content of hydrochloric acid in hydrochloride was calculated according to the external standard method, and the quantitative results of hydrochloride are shown in Table 30.

[7] = Hygroscopicity experiment of crystal form A of hydrochloride; assay type: physicochemical
Source text: 5 Hygroscopicity Experiment

[8] = Thermodynamic stability experiment of crystal form (pulping in solvents); assay type: physicochemical; details: for Results (crystal form after pulping, XRPD): pulped 1 week at room temperature and 50° C.
Protocol: 6. Thermodynamic Stability Experiment of Crystal Form
An organic solvent with a certain solubility was selected. […] The supernatant was discarded, and the solid was dried in vacuum (−0.1 Mpa) overnight at 50° C. The XRPD of the solid was determined and compared with XRPD of raw compound salt.

[9] = High humidity, 5 Days, listed as Crystal form A of hydrochloride
[10] = High temperature and high humidity, 5 Days
[11] = High temperature and high humidity, 10 Days
[12] = Light, 5 Days, listed as Crystal form A of hydrochloride
[13] = Light, 10 Days, listed as Crystal form A of hydrochloride
[14] = light, 60° C., 92.5% RH, 50° C. 75% RH, 5 and 10 days
[15] = light, 60° C., 92.5% RH, 40° C. & 75% RH

O=C(N[C@H]1C[C@H](CCN2CCN(c3cccc(Cl)c3Cl)CC2)C1)c1ncco1 [crystal form A of hydrochloride, N-(trans-3-(2-(4-(2,3-dichlorophenyl)piperazin-1-yl)ethyl)cyclobutyl)oxazole-2-carboxamide]
Maximum single impurity increase % [1, 9]: 0.06%
Total impurity increase % [1, 9]: 0.06%
Maximum single impurity increase % ([1]; High humidity, 10 Days): <0.02%
Total impurity increase % ([1]; High humidity, 10 Days): <0.02%
Maximum single impurity increase % [1, 10]: <0.02%
Total impurity increase % [1, 10]: <0.02%
Maximum single impurity increase % [1, 11]: <0.02%
Total impurity increase % [1, 11]: <0.02%
Maximum single impurity increase % ([1]; High temperature, 5 Days): <0.02%
Total impurity increase % ([1]; High temperature, 5 Days): <0.02%
Maximum single impurity increase % ([1]; High temperature, 10 Days): <0.02%
Total impurity increase % ([1]; High temperature, 10 Days, listed as Crystal form A of hydrochloride): 0.03%
Maximum single impurity increase % [1, 12]: <0.02%
Total impurity increase % [1, 12]: <0.02%
Maximum single impurity increase % [1, 13]: <0.02%
Total impurity increase % [1, 13]: <0.02%
crystal form stability [1, 14]: stable under all conditions
impurities [1, 14]: not significantly increased
crystal transformation (PXRD) [2]: didn't undergo crystal transformation
exposure versus dose ([3]; dose of 100 mg/kg and 30 mg/kg): dose-related
in vivo exposure compared with crystal form B of free base ([3]; gavage): increased
stability [4]: good stability
crystal form change (PXRD) [4, 15]: does not undergo crystal form change
impurities (HPLC) [4, 15]: do not increase significantly
crystal transformation (PXRD) [5]: didn't undergo crystal transformation
Determination of Cl-percentage content in hydrochloride ([6]; Batch 1): 7.82%
Determination of Cl-percentage content in hydrochloride ([6]; Batch 2): 7.90%
stability in humid environments [7]: stable in humid environments
thermodynamic stability of crystal form [8]: thermodynamically stable crystal form
Results (crystal form after pulping, XRPD) ([8]; 1,4-Dioxane): Crystal form A
crystal form after being pulped by different solvents ([8]; 1 week, room temperature and 50° C.): does not change
Results (crystal form after pulping, XRPD) ([8]; 2-Butanone): Crystal form A
Results (crystal form after pulping, XRPD) ([8]; 2-Methyl-tetrahydrofuran): Crystal form A
Results (crystal form after pulping, XRPD) ([8]; Acetone): Crystal form A
Results (crystal form after pulping, XRPD) ([8]; Acetonitrile): Crystal form A
Results (crystal form after pulping, XRPD) ([8]; Dichloromethane): Crystal form A
Results (crystal form after pulping, XRPD) ([8]; Ethanol): Crystal form A
Results (crystal form after pulping, XRPD) ([8]; Ethyl acetate): Crystal form A
Results (crystal form after pulping, XRPD) ([8]; Ethyl formate): Crystal form A
Results (crystal form after pulping, XRPD) ([8]; Isopropanol): Crystal form A
Results (crystal form after pulping, XRPD) ([8]; Methanol): Crystal form A
Results (crystal form after pulping, XRPD) ([8]; Methyl tert-butyl ether): Crystal form A
Results (crystal form after pulping, XRPD) ([8]; Tetrahydrofuran): Crystal form A
Results (crystal form after pulping, XRPD) ([8]; Toluene): Crystal form A
Results (crystal form after pulping, XRPD) ([8]; n-Heptane): Crystal form A
